In ChEMBL document CHEMBL4266047, “First Report of Plant-Derived β-Sitosterol with Antithrombotic, in Vivo Anticoagulant, and Thrombus-Preventing Activities in a Mouse Model” (J Nat Prod, 2018):
Active and inactive are the calls of the source. The calls are words filed in the database; no cut-off is given here.

How the values were obtained:
Mus musculus [1] = assay: Anticoagulant activity in Swiss albino mouse assessed as increase in prothrombin time at 50 mg/kg, iv measured after 5 hrs relative to control; format: functional
Mus musculus [2] = assay: Anticoagulant activity in Swiss albino mouse assessed as increase in activated partial thromboplastin time at 50 mg/kg, iv measured after 5 hrs relative to control; format: functional
Mus musculus [3] = assay: Anticoagulant activity in Swiss albino mouse assessed as tail bleeding time at 50 mg/kg, iv measured after 5 hrs (reference value: 45.3 +/- 2.5 sec); format: functional
Mus musculus [4] = assay: Anticoagulant activity in Swiss albino mouse assessed as plasma clotting time at 50 mg/kg, iv measured after 5 hrs (reference value: 175.5 +/- 9.1 sec); format: functional
Prothrombin [5] = target: T1, Prothrombin (Homo sapiens, UniProt P00734); assay: Inhibition of human thrombin at 7.5 uM using T1637 as substrate preincubated for 30 mins followed by heparin addition by SDS-PAGE analysis
Plasma [6] = assay: Anticoagulant activity in human platelet poor plasma assessed as prolongation of calcium clotting time after 3 mins; format: functional, cell-free
Plasma [7] = assay: Anticoagulant activity in human platelet poor plasma assessed as prolongation of calcium clotting time at 2.5 uM after 3 mins; format: functional, cell-free
Plasma [8] = assay: Anticoagulant activity in human platelet poor plasma assessed as prolongation of calcium clotting time at 2.5 uM; format: functional, cell-free; conditions: TDE = time-dependent effect
Plasma [9] = assay: Anticoagulant activity in human platelet poor plasma assessed as activated partial thromboplastin time at 10 uM after 3 mins (reference value: 14.2 +/- 1.3 sec); format: functional
Plasma [10] = assay: Anticoagulant activity in human platelet poor plasma assessed as increase in prothrombin time at 1.25 to 15 uM after 3 mins; format: functional, cell-free
Blood [11] = assay: Anticoagulant activity in goat whole blood assessed as prolongation of calcium clotting time after 3 mins; format: functional, tissue-based; conditions: Capra hircus
Prothrombin [12] = target: T1, Prothrombin; assay: Uncompetitive inhibition of human thrombin using T1637 as substrate by Michaelis-Menten plot analysis
Prothrombin [13] = target: T1, Prothrombin; assay: Inhibition of human thrombin using T1637 as substrate
Prothrombin [14] = target: T1, Prothrombin; assay: Inhibition of human thrombin assessed as prolongation of fibrinogen clotting time of thrombin
[15] = target: Coagulation factor X (Homo sapiens) (UniProt P00742); assay: Inhibition of human factor 10a assessed as prothrombin activation using F3301 as substrate
Heterodera schachtii [16] = assay: Inhibition of human fibrinogen at 5 uM after 120 mins by SDS-PAGE analysis
[17] = target: Coagulation factor X (Homo sapiens) (UniProt P00742); assay: Binding affinity to human factor 10a at 1.25 to 15 uM after 3 mins by fluorescence spectrometric analysis
Heterodera schachtii [18] = assay: Binding affinity to human fibrinogen at 1.25 to 15 uM after 3 mins by fluorescence spectrometric analysis
Prothrombin [19] = target: T1, Prothrombin; assay: Binding affinity to human thrombin at 1.25 to 15 uM after 3 mins by fluorescence spectrometric analysis
Prothrombin [20] = target: T1, Prothrombin; assay: Binding affinity to human thrombin by isothermal calorimetric titration method
HEK293 = assay: Cytotoxicity against HEK293 cells assessed as decrease in cell viability at 50 uM after 24 hrs by MTT assay; format: cell-based; conditions: human, hek293, 24 h
Prothrombin [21] = target: T1, Prothrombin; assay: Inhibition of thrombin in human platelet rich plasma assessed as reduction in thrombin-induced platelet aggregation after 5 mins
Prothrombin [22] = target: T1, Prothrombin; assay: Inhibition of thrombin in human washed platelets assessed as reduction in thrombin-induced platelet aggregation after 5 mins
Blood [23] = assay: Thrombolytic activity in goat non-heated blood clot assessed as clot lysed after 3 hrs (reference value: 2.1 +/- 0.3 mg/microM); format: functional, Capra hircus
Blood [24] = assay: Thrombolytic activity in goat heated blood clot assessed as clot lysed after 3 hrs (reference value: 0.7 +/- 0.2 mg/microM); format: functional, Capra hircus
Blood [25] = assay: Thrombolytic activity in goat heated blood clot assessed as plasmin activation at 1 uM using V0882 as substrate incubated for 20 mins measured for 15 mins in presence of serine protease inhibitor PMSF; format: functional, tissue-based; conditions: Capra hircus
Blood [26] = assay: Thrombolytic activity in goat non-heated blood clot assessed as plasmin activation at 1 uM using V0882 as substrate incubated for 20 mins measured for 15 mins; format: functional, Capra hircus
Blood [27] = assay: Thrombolytic activity in goat heated blood clot assessed as plasmin activation at 1 uM using V0882 as substrate incubated for 20 mins measured for 15 mins; format: functional, Capra hircus
Blood [28] = assay: Thrombolytic activity in goat non-heated blood clot assessed as plasmin activation at 1 uM using V0882 as substrate incubated for 20 mins measured for 15 mins in presence of serine protease inhibitor PMSF; format: functional, tissue-based; conditions: Capra hircus
Erythrocyte = assay: Hemolytic activity against human erythrocytes assessed as hemolysis at 2.5 to 50 uM after 90 mins; format: ADME, cell-based; conditions: 1.5 h
Mus musculus [29] = assay: Defibrinogenation activity in Swiss albino mouse plasma at 50 mg/kg, iv measured after 5 hrs; format: functional, organism-based
Mus musculus [30] = assay: Antithrombotic activity in Swiss albino mouse tail thrombosis model assessed as inhibition of k-carrageenan-induced thrombus formation at 12.5 mg/kg, po administered for one week followed by k-carrageenan challenge 30 mins post last compound dose and measured after 24 hrs; format: functional
Mus musculus [31] = assay: Antithrombotic activity in Swiss albino mouse tail thrombosis model assessed as inhibition of k-carrageenan-induced thrombus formation at 25 mg/kg, po administered for one week followed by k-carrageenan challenge 30 mins post last compound dose and measured after 24 hrs; format: functional
Mus musculus [32] = assay: Antithrombotic activity in Swiss albino mouse tail thrombosis model assessed as inhibition of k-carrageenan-induced thrombus formation at 50 mg/kg, po administered for one week followed by k-carrageenan challenge 30 mins post last compound dose and measured after 24 hrs; format: functional
Mus musculus [33] = assay: Antithrombotic activity in Swiss albino mouse tail thrombosis model assessed as inhibition of k-carrageenan-induced thrombus formation at 12.5 mg/kg, po administered for one week followed by k-carrageenan challenge 30 mins post last compound dose and measured after 48 hrs; format: functional
Mus musculus [34] = assay: Antithrombotic activity in Swiss albino mouse tail thrombosis model assessed as inhibition of k-carrageenan-induced thrombus formation at 25 mg/kg, po administered for one week followed by k-carrageenan challenge 30 mins post last compound dose and measured after 48 hrs; format: functional
Mus musculus [35] = assay: Antithrombotic activity in Swiss albino mouse tail thrombosis model assessed as inhibition of k-carrageenan-induced thrombus formation at 50 mg/kg, po administered for one week followed by k-carrageenan challenge 30 mins post last compound dose and measured after 48 hrs; format: functional
Mus musculus [36] = assay: Antithrombotic activity in Swiss albino mouse tail thrombosis model assessed as inhibition of k-carrageenan-induced thrombus formation at 12.5 mg/kg, po administered for one week followed by k-carrageenan challenge 30 mins post last compound dose and measured after 72 hrs; format: functional
Mus musculus [37] = assay: Antithrombotic activity in Swiss albino mouse tail thrombosis model assessed as inhibition of k-carrageenan-induced thrombus formation at 25 mg/kg, po administered for one week followed by k-carrageenan challenge 30 mins post last compound dose and measured after 72 hrs; format: functional
Mus musculus [38] = assay: Antithrombotic activity in Swiss albino mouse tail thrombosis model assessed as inhibition of k-carrageenan-induced thrombus formation at 50 mg/kg, po administered for one week followed by k-carrageenan challenge 30 mins post last compound dose and measured after 72 hrs; format: functional
Mus musculus [39] = assay: Antithrombotic activity in Swiss albino mouse tail thrombosis model assessed as inhibition of k-carrageenan-induced thrombus formation administered orally for one week followed by k-carrageenan challenge 30 mins post last compound dose and measured after 24 to 72 hrs; format: functional, organism-based
Platelet [40] = assay: Antiplatelet activity in human platelet rich plasma up to 10 uM incubated for 5 mins measured after 300 secs; format: functional, cell-based
Platelet [41] = assay: Antiplatelet activity in human washed platelets up to 10 uM incubated for 5 mins measured after 300 secs; format: functional, cell-based

Chain of Coagulation factor X (Homo sapiens) (P00742 41-179 limits assumed): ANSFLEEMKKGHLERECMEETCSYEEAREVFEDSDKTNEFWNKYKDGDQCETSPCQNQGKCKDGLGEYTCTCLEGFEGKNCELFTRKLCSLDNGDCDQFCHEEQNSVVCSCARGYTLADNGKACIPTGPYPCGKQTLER
Chain of Coagulation factor X (Homo sapiens) (P00742 235-488 limits assumed): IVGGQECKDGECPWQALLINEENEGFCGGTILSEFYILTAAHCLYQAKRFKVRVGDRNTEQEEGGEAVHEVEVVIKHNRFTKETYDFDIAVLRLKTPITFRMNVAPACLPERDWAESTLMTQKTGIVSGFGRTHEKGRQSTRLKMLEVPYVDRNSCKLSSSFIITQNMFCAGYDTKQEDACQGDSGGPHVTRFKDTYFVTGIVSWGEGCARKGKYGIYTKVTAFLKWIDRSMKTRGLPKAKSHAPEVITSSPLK

SMILES: CC1CNc2c(cccc2S(=O)(=O)N[C@@H](CCCNC(=N)N)C(=O)N2CC[C@@H](C)C[C@@H]2C(=O)O)C1 (some centres not stated) [ARGATROBAN]
- fold change (FC) (Mus musculus [1]): 4
- fold change (FC) (Mus musculus [2]): 2.3
- Time (Mus musculus [3]): 143.5 s
- Time (Mus musculus [4]): 238.6 s

SMILES: CC[C@H](CC[C@@H](C)[C@H]1CC[C@H]2[C@@H]3CC=C4C[C@@H](O)CC[C@]4(C)[C@H]3CC[C@]12C)C(C)C [BETA-SITOSTEROL]
- inhibition (Prothrombin [5]): Active
- Activity (Plasma [6]): Dose-dependent effect
- Activity (Plasma [7]): Active
- Activity (Plasma [8]): Tde
- APTT (Plasma [9]): 28.2 s
- Activity (Plasma [10]): Active
- Activity (Blood [11]): Dose-dependent effect
- Ki (Prothrombin [12]): 267 nM
- inhibition (Prothrombin [13]): Dose-dependent effect
- inhibition (Prothrombin [14]): Dose-dependent effect
- inhibition [15]: inactive
- inhibition (Heterodera schachtii [16]): inactive
- Activity [17]: inactive
- Activity (Heterodera schachtii [18]): inactive
- Activity (Prothrombin [19]): Active
- Ka (Prothrombin [20]): 109 M⁻¹
- Activity (HEK293): Non-Toxic
- inhibition (Prothrombin [21]): Dose-dependent effect
- inhibition (Prothrombin [22]): Dose-dependent effect
- Activity (Blood [23]): 7.7 mg/µM
- Activity (Blood [24]): 1 mg/µM
- Activity (Blood [25]): Active
- Activity (Blood [26]): 15.8 mg/µM
- Activity (Blood [27]): 9.2 mg/µM
- Activity (Blood [28]): Active
- Activity (Erythrocyte): Non-Toxic
- fold change (FC) (Mus musculus [1]): 1.1
- fold change (FC) (Mus musculus [2]): 1.6
- Time (Mus musculus [3]): 61 s
- Time (Mus musculus [4]): 193.5 s
- Activity (Mus musculus [29]): inactive
- inhibition in vivo at 12.5 mg/kg (Mus musculus [30]): 10.5%
- inhibition in vivo at 25 mg/kg (Mus musculus [31]): 15.2%
- inhibition in vivo at 50 mg/kg (Mus musculus [32]): 23.4%
- inhibition in vivo at 12.5 mg/kg (Mus musculus [33]): 14.5%
- inhibition in vivo at 25 mg/kg (Mus musculus [34]): 31.3%
- inhibition in vivo at 50 mg/kg (Mus musculus [35]): 42.3%
- inhibition in vivo at 12.5 mg/kg (Mus musculus [36]): 23.2%
- inhibition in vivo at 25 mg/kg (Mus musculus [37]): 36.5%
- inhibition in vivo at 50 mg/kg (Mus musculus [38]): 47.3%
- inhibition (Mus musculus [39]): Dose-dependent effect

SMILES: CC(=O)Oc1ccccc1C(=O)O
- Activity (Platelet [40]): Active
- Activity (Platelet [41]): Active
